According to patent US8871753B2, “Macrocyclic compounds and their use as kinase inhibitors” (Incyte Corporation, priority 2008, dated 2014):
Structures can show the parent of a compound that is named as a salt. Where two headings read alike, the source gives them in different places.

Columns and labels:
Format in all cases: biochemical
[1] = molecular target: T1, Recombinant Human Anaplastic Lymphoma Kinase (Homo sapiens, UniProt Q9UM73); assay: ALK HTRF kinase assay
T1 construct: purchased Invitrogen, Carlsbad, Calif
T1 sequence (Q9UM73 19-1620): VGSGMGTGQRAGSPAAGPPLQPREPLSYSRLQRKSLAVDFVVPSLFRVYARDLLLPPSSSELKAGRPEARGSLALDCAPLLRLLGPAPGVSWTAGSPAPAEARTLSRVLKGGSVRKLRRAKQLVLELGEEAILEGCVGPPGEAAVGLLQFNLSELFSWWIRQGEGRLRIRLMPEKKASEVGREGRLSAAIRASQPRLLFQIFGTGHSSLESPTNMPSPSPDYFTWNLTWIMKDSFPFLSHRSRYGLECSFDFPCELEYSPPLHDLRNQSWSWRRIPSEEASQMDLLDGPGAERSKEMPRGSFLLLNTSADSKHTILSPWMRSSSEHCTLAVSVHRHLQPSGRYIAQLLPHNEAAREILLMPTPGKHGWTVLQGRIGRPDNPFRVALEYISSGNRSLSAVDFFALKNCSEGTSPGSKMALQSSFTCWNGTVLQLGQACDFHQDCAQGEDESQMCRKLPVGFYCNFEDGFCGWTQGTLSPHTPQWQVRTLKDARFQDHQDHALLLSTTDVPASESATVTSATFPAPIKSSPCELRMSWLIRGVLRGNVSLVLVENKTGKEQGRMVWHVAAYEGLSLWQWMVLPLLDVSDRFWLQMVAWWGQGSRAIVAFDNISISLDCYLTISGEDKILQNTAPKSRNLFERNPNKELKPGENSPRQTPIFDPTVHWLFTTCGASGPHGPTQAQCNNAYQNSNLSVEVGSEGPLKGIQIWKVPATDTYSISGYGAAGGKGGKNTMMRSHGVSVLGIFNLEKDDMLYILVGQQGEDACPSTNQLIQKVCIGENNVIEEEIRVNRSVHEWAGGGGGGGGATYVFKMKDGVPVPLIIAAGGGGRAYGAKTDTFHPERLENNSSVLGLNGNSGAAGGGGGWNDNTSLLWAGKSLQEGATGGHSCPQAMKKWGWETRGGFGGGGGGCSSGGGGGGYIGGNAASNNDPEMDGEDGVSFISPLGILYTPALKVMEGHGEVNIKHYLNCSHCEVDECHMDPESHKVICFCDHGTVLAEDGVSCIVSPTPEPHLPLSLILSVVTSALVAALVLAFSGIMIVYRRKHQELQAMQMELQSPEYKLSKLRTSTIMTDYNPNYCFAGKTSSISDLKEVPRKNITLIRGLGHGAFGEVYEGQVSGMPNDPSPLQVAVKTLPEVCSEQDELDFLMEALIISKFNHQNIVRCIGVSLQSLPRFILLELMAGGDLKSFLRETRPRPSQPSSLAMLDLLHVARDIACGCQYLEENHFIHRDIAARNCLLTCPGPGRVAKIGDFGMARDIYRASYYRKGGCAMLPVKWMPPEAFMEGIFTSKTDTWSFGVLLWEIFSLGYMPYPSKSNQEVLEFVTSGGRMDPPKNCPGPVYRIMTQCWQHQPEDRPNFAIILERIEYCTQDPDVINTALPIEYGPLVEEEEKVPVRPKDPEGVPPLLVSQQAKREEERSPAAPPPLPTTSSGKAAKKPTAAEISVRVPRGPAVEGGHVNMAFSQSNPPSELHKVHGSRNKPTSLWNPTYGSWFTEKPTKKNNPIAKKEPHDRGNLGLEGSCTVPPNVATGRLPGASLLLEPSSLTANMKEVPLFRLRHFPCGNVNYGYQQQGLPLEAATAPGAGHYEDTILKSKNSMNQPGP
In short: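 Compounds were incubated with recombinant human ALK and a biotin-tagged peptide substrate. Product was captured with streptavidin-APC and probed with a europium anti-phosphotyrosine antibody, and plates were read for time-resolved fluorescence. Dose-response data were fitted to derive IC50.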

[2] = molecular target: T2, human JAK1 (a.a. 837-1142) (Homo sapiens, UniProt P23458); assay: In vitro JAK kinase assay (HTRF, phosphorylation of a biotinylated peptide), JAK1; settings: read-out: JAK1 IC50
T2 construct: human JAK1 (a.a. 837-1142); His tag (N); made in house; host or cells: insect cells (baculovirus)
T2 sequence (P23458 849-1154): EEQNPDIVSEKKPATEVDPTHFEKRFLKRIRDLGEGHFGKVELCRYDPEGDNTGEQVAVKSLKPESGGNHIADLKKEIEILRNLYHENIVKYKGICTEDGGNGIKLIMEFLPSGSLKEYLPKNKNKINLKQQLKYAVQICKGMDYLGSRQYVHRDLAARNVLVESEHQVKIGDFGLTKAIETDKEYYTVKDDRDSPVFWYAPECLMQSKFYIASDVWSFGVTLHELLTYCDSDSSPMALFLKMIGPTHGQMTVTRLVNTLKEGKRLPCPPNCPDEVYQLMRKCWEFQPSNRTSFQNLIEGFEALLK
In short: (§1)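 Kinase reactions ran at room temperature for 1 h with ATP matched per isoform (JAK1 90 μM, JAK2 30 μM, JAK3 3 μM). After an EDTA stop, the phosphorylated biotin-peptide was read by HTRF using Eu-Py20 and SA-APC after 40 min binding.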

[3] = molecular target: T3, human JAK2 (a.a. 828-1132) (Homo sapiens, UniProt O60674); assay: In vitro JAK kinase assay (HTRF, phosphorylation of a biotinylated peptide), JAK2
T3 construct: JAK2 (a.a. 828-1132); His tag (N); made in house; host or cells: insect cells (baculovirus)
T3 sequence (O60674 828-1132): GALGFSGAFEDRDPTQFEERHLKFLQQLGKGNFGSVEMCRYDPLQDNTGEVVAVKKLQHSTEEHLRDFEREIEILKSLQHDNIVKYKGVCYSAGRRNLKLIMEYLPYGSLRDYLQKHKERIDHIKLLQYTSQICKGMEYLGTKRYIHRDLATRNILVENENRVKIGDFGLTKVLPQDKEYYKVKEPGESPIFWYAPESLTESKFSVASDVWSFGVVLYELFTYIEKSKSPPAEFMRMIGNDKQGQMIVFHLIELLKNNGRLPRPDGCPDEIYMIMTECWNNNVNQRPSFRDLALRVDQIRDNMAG
In short: as §1

TYK2 = TYK2 (Homo sapiens, UniProt P29597); assay: TYK2 kinase inhibition (Table A1)
Sequence of TYK2 (P29597 whole entry): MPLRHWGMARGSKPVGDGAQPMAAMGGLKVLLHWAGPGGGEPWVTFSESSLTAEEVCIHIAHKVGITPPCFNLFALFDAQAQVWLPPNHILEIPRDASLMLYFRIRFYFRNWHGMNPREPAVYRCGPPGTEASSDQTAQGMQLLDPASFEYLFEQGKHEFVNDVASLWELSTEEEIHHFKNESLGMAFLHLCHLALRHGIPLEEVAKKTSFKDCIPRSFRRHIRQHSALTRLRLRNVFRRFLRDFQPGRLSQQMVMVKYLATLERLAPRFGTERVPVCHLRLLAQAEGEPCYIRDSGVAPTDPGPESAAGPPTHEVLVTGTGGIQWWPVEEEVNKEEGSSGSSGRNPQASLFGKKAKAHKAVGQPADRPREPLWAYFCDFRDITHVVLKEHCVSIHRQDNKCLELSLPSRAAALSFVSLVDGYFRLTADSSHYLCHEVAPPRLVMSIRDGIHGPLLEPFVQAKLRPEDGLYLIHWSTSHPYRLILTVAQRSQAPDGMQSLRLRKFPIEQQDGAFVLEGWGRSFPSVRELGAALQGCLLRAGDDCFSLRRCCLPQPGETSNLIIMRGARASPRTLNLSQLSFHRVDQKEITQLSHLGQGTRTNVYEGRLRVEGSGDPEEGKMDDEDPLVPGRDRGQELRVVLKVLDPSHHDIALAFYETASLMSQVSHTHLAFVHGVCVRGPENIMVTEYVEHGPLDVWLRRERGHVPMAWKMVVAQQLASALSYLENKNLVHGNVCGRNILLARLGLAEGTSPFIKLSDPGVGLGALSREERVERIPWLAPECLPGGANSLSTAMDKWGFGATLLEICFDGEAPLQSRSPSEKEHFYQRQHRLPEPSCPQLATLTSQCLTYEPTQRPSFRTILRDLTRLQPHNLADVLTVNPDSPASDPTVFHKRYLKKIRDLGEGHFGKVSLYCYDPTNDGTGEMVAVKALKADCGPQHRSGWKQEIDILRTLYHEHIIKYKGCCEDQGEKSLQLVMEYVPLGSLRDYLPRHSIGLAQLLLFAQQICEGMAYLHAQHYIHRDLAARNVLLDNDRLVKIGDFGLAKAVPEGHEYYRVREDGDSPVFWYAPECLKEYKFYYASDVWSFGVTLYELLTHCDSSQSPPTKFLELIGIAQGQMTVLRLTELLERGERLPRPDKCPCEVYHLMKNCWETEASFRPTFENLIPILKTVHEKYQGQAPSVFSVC

[4] = molecular target: T4, human JAK3 (a.a. 781-1124) (Homo sapiens, UniProt P52333); assay: In vitro JAK kinase assay (HTRF, phosphorylation of a biotinylated peptide), JAK3
T4 construct: JAK3 (a.a. 781-1124); His tag (N); made in house; host or cells: insect cells (baculovirus)
T4 sequence (P52333 781-1124): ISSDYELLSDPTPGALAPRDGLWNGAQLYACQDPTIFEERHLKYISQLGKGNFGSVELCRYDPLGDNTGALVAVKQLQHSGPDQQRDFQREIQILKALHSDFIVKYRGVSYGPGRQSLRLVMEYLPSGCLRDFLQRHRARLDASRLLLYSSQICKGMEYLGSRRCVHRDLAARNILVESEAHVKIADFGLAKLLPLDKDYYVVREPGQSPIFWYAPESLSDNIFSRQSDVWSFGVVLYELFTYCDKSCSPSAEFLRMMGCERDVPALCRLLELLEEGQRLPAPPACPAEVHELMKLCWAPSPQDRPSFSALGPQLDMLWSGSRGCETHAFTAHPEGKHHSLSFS
In short: as §1

[5] = compound at a concentration of 500 nM or 1 mM (not specified), cells shown as percentage
[6] = Table B1, cells without percent sign
[7] = compound at 500 nM or 1 mM, 90 μM ATP
[8] = method AA1 (90 μM ATP) or AA2 (1000 μM ATP), not stated per value
[9] = method AA1 (30 μM ATP) or AA2 (1000 μM ATP), not stated per value
[10] = method AA1 (3 μM ATP) or AA2 (1000 μM ATP), not stated per value

| Structure (SMILES) | ALK % of inhibition at a concentration of 500 nM or 1 mM [1, 5] | IC50 ([2]; Table B1) | IC50 ([3]; Table B1) | IC50 (TYK2; Table B1) | IC50 ([4]; Table B1) | IC50 (TYK2) | other results |
| --- | --- | --- | --- | --- | --- | --- | --- |
| O=C(Nc1ccc2cc1CCc1cccc(c1)Nc1ncc(Cl)c(n1)N2)N[C@@H]1CCN(C(=O)c2ccccc2)C1 [Example B176, N-[(3R)-1-Benzoylpyrrolidin-3-yl]-N′-[6-chloro-2,4,8,22-tetraazatetracyclo[14.3.1.1(3,7).1(9,13)]docosa-1(20),3(22),4,6,9(21),10,12,16,18-nonaen-12-yl]urea trifluoroacetate] | 19% | 5.7 nM | 7.8 nM | 25 nM | 60 nM | – | – |
| O=C(Nc1cccc(Cl)c1)Nc1ccc2cc1CCc1cccc(c1)Nc1ncc(Cl)c(n1)N2 [Example B85, N-(3-Chlorophenyl)-N′-[6-chloro-2,4,8,22-tetraazatetracyclo[14.3.1.1(3,7).1(9,13)]docosa-1(20),3(22),4,6,9(21),10,12,16,18-nonaen-12-yl]urea trifluoroacetate] | – | 1.4 nM | 2.7 nM | 2.2 nM | 39 nM | – | IC50 [1, 6]: > 1000 nM |
| CN(C(=O)Nc1ccc2cc1CCc1cncc(c1)Nc1ncc(Cl)c(n1)N2)[C@H]1CCNC1 [Example B288, N′-[6-Chloro-2,4,8,18,22-pentaazatetracyclo[14.3.1.1(3,7).1(9,13)]docosa-1(20),3(22),4,6,9(21),10,12,16,18-nonaen-12-yl]-N-methyl-N-[(3S)-pyrrolidin-3-yl]urea tris(trifluoroacetate)] | 18% | 42 nM | 180 nM | > 200 nM | > 200 nM | – | – |
| O=C(Nc1ccc2cc1CCc1cncc(c1)Nc1ncc(Cl)c(n1)N2)N1CCN(c2ccncc2)CC1 [Example B293, N-[6-Chloro-2,4,8,18,22-pentaazatetracyclo[14.3.1.1(3,7).1(9,13)]docosa-1(20),3(22),4,6,9(21),10,12,16,18-nonaen-12-yl]-4-pyridin-4-ylpiperazine-1-carboxamide tetrakis(trifluoroacetate)] | 45% | 60 nM | > 200 nM | 150 nM | > 200 nM | – | – |
| CC(C)C(=O)N1CCC(CC(=O)Nc2ccc3cc2CCc2cncc(c2)Nc2ncc(Cl)c(n2)N3)CC1 [Example A103, N-[6-Chloro-2,4,8,18,22-pentaazatetracyclo[14.3.1.1(3,7).1(9,13)]docosa-1(20),3(22),4,6,9(21),10,12,16,18-nonaen-12-yl]-2-(1-isobutyrylpiperidin-4-yl)acetamide bis(trifluoroacetate)] | – | – | – | – | – | 15 nM | ALK % of inhibition at a concentration of 500 nM or 1 mM [1, 7]: 24%; IC50 [2, 8]: 10 nM; IC50 [3, 9]: 21 nM; IC50 [4, 10]: 156 nM |
| CCOC(=O)CNC(=O)N1CCC(C(=O)Nc2ccc3cc2CCc2cccc(c2)Nc2ncc(Cl)c(n2)N3)CC1 [Example A60, Ethyl ({[4-({[6-chloro-2,4,8,22-tetraazatetracyclo[14.3.1.1(3,7).1(9,13)]docosa-1(20),3(22),4,6,9(21),10,12,16,18-nonaen-12-yl]amino}carbonyl)piperidin-1-yl]carbonyl}amino)acetate trifluoroacetate] | – | – | – | – | – | 22 nM | ALK % of inhibition at a concentration of 500 nM or 1 mM [1, 7]: 28%; IC50 [2, 8]: 31 nM; IC50 [3, 9]: 6.5 nM; IC50 [4, 10]: 14 nM |
| O=C(NCc1ccccc1)N1CCN(c2cc(-c3cc4cc(c3)Nc3ncc(Cl)c(n3)Nc3cccc(c3)OCC4)ccn2)CC1 [Example D45, N-Benzyl-4-{4-[6-chloro-14-oxa-2,4,8,23-tetraazatetracyclo[15.3.1.1(3,7).1(9,13)]tricosa-1(21),3(23),4,6,9(22),10,12,17,19-nonaen-19-yl]pyridin-2-yl}piperazine-1-carboxamide bis(trifluoroacetate)] | – | – | – | – | – | – | IC50 ([1]; Table D1, 90 μM ATP): 340 nM; IC50 ([2]; Table D1): 8.1 nM; IC50 ([3]; Table D1): 3 nM; IC50 (TYK2; Table D1): 13 nM; IC50 ([4]; Table D1): 36 nM |
| O=C1Cc2cccc(c2)Nc2ncc(Cl)c(n2)Nc2cccc(c2)N1 [Example C10, 6-Chloro-2,4,8,14,23-pentaazatetracyclo[15.3.1.1(3,7).1(9,13)]tricosa-1(21),3(23),4,6,9(22),10,12,17,19-nonaen-15-one trifluoroacetate] | – | – | – | – | – | 60 nM | IC50 [1]: > 10000 nM; IC50 [2]: 154 nM; IC50 [3]: 303 nM; IC50 [4]: > 1000 nM |
| Cc1ncoc1C(=O)Nc1ccc2cc1CCc1cccc(c1)Nc1ncc(Cl)c(n1)N2 [Example B78, N-[6-Chloro-2,4,8,22-tetraazatetracyclo[14.3.1.1(3,7).1(9,13)]docosa-1(20),3(22),4,6,9(21),10,12,16,18-nonaen-12-yl]-4-methyl-1,3-oxazole-5-carboxamide trifluoroacetate] | 44% | 11 nM | 12 nM | 29 nM | 57 nM | – | – |
| O=C(NCCN1CCCC1=O)Nc1ccc2cc1CCc1cccc(c1)Nc1ncc(Cl)c(n1)N2 [Example B257, N-[6-Chloro-2,4,8,22-tetraazatetracyclo[14.3.1.1(3,7).1(9,13)]docosa-1(20),3(22),4,6,9(21),10,12,16,18-nonaen-12-yl]-N′-[2-(2-oxopyrrolidin-1-yl)ethyl]urea trifluoroacetate] | 14% | 7.3 nM | 9.5 nM | 18 nM | 64 nM | – | – |

More lines, main results first:

| ALK % of inhibition at a concentration of 500 nM or 1 mM [1, 5] | IC50 ([2]; Table B1) | IC50 ([3]; Table B1) | IC50 (TYK2; Table B1) | IC50 ([4]; Table B1) | IC50 (TYK2) | Structure (SMILES) | other results |
| --- | --- | --- | --- | --- | --- | --- | --- |
| – | 2.4 nM | 2.9 nM | 16 nM | 40 nM | – | O=C(Nc1ccsc1)Nc1ccc2cc1CCc1cccc(c1)Nc1ncc(Cl)c(n1)N2 [Example B89, N-[6-Chloro-2,4,8,22-tetraazatetracyclo[14.3.1.1(3,7).1(9,13)]docosa-1(20),3(22),4,6,9(21),10,12,16,18-nonaen-12-yl]-N′-3-thienylurea trifluoroacetate] | IC50 [1, 6]: > 1000 nM |
| – | 2.7 nM | 2.6 nM | 6.4 nM | 27 nM | – | O=C(Nc1ccc(Cl)cc1)Nc1ccc2cc1CCc1cccc(c1)Nc1ncc(Cl)c(n1)N2 [Example B86, N-(4-Chlorophenyl)-N′-[6-chloro-2,4,8,22-tetraazatetracyclo[14.3.1.1(3,7).1(9,13)]docosa-1(20),3(22),4,6,9(21),10,12,16,18-nonaen-12-yl]urea trifluoroacetate] | IC50 [1, 6]: > 1000 nM |
| 26% | 2.1 nM | 1 nM | 7 nM | 14 nM | – | NS(=O)(=O)N1CCC(NC(=O)Nc2ccc3cc2CCc2cccc(c2)Nc2ncc(Cl)c(n2)N3)CC1 [Example B183, 4-[({[6-Chloro-2,4,8,22-tetraazatetracyclo[14.3.1.1(3,7).1(9,13)]docosa-1(20),3(22),4,6,9(21),10,12,16,18-nonaen-12-yl]amino}carbonyl)amino]piperidine-1-sulfonamide trifluoroacetate] | – |
| – | – | – | – | – | > 1000 nM | O=C1Cc2cccc(c2)Nc2nc(ncc2Cl)Nc2cccc(c2)N1 [Example C11, 6-Chloro-2,4,8,16,23-pentaazatetracyclo[15.3.1.1(3,7).1(9,13)]tricosa-1(21),3(23),4,6,9(22),10,12,17,19-nonaen-15-one trifluoroacetate] | IC50 [1]: > 10000 nM; IC50 [2]: > 1000 nM; IC50 [3]: > 1000 nM; IC50 [4]: > 1000 nM |
| – | – | – | – | – | 75 nM | N#Cc1ccc(C(=O)N2CCC(C(=O)Nc3ccc4cc3CCc3cccc(c3)Nc3ncc(Cl)c(n3)N4)CC2)cc1 [Example A33, N-[6-Chloro-2,4,8,22-tetraazatetracyclo[14.3.1.1(3,7).1(9,13)]docosa-1(20), 3(22),4,6,9(21),10,12,16,18-nonaen-12-yl]-1-(4-cyanobenzoyl)piperidine-4-carboxamide trifluoroacetate] | ALK % of inhibition at a concentration of 500 nM or 1 mM [1, 7]: 26%; IC50 [2, 8]: 30 nM; IC50 [3, 9]: 38 nM; IC50 [4, 10]: 102 nM |
| – | – | – | – | – | 2.1 nM | O=C(CC1CCN(C(=O)c2nc[nH]n2)CC1)Nc1ccc2cc1CCc1cncc(c1)Nc1ncc(Cl)c(n1)N2 [Example A136, N-[6-Chloro-2,4,8,18,22-pentaazatetracyclo[14.3.1.1(3,7).1(9,13)]docosa-1(20),3(22),4,6,9(21),10,12,16,18-nonaen-12-yl]-2-[1-(1H-1,2,4-triazol-3-ylcarbonyl)piperidin-4-yl]acetamide bis(trifluoroacetate)] | ALK % of inhibition at a concentration of 500 nM or 1 mM [1, 7]: 38%; IC50 [2, 8]: 0.4 nM; IC50 [3, 9]: 2.4 nM; IC50 [4, 10]: 57 nM |
| – | 11 nM | 5.1 nM | 17 nM | > 100 nM | – | Cc1cnc2nc1Nc1cccc(c1)/C=C\c1cccc(c1)N2 [Example B1, (14Z)-6-Methyl-2,4,8,22-tetraazatetracyclo[14.3.1.1(3,7).1(9,13)]docosa-1(20),3(22),4,6,9(21),10,12,14,16,18-decaene trifluoroacetate] | IC50 [1, 6]: 786 nM |
